Measurements taken from patent publication US11160798B2, “Neuroprotective CB2 receptor agonists” (THE CLEVELAND CLINIC FOUNDATION, priority 2012, dated 2021).

Legend:
Type in all cases: in vivo, rat
IL-1β = IL-1β protein expression in hippocampal CA1 area (immunoblotting); details: Aβ1-40-injected rats, 15 mg/kg i.p. daily for 14 days
Description: (§1) Animals were divided into several groups (40-50 rats per group). The Aβ1-40 group received bilateral intracerebral microinjection of Aβ1-40 fibrils once and saline intraperitoneally (i.p.) daily for 14 days. The Aβ1-40+MDA7 group received bilateral intracerebral microinjection of Aβ1-40 fibrils once and 15 mg/kg MDA7 i.p. daily for 14 days. Other cohorts received smaller doses of MDA7 (5 mg/kg or 1.5 mg/kg) i.p. daily for 14 days to determine the dose-response characteristics for MDA7. In other groups, AM630 (a CB2 antagonist) 5 mg/kg i.p. was administered daily for 14 days either alone (Aβ1-40+AM630 group) or 15 min prior to MDA7 (15 mg/kg i.p.) administration (Aβ1-40+MDA7+AM630 group) to rats injected with β1-40 fibrils. […]
Protein extraction and immunoblotting. […] Protein concentrations were determined by using the Bio-Rad (Hercules, Calif.) protein assay kit.
The samples were treated with SDS sample buffer at 95° C. for 5 min, loaded on a 7.5% SDS-polyacrylamide, gel, and blotted to a nitrocellulose membrane. […] The immunoreactivity was detected using enhanced chemiluminescence (ECL Advance Kit; Amersham Biosciences). The intensity of the bands was captured digitally and analyzed quantitatively with ImageJ software. […]

CB2 receptor = CB2 receptor expression in hippocampal CA1 area (immunostaining, immunoblotting); details: Aβ1-40-injected rats
Description: as §1, with “fibrils. MDA7 group and control group received bilateral intracerebral microinjection of artificial cerebrospinal fluid (130 mM NaCl, 2.6 mM KCl. 4.3 mM MgCl2 and 1.8 mM CaCl2) once and 15 mg/kg MDA7 or saline i.p. daily for 14 days, respectively.” for “fibrils.”
(§2) Immunostaining. […] Three to six sections from each rat were randomly selected and were analyzed using Leica DMLB fluorescence microscope (Leica Microsystems Wetzlar GmbH, Germany) by one investigator, who was blinded to the origin of tissue being examined. Images were quantified using MCID Core software version 7.0 (InterFocus Imaging Ltd, Cambridge, England). […]

GFAP = GFAP immunoreactivity in hippocampal CA1 area (immunostaining, immunoblotting)
Description: (§3) Animals were divided into several groups ([…]). The Aβ1-40 group received bilateral intracerebral microinjection of Aβ1-40 fibrils once and saline intraperitoneally (i.p.) daily for 14 days. The Aβ1-40+MDA7 group received bilateral intracerebral microinjection of Aβ1-40 fibrils once and 15 mg/kg MDA7 i.p. daily for 14 days. Other cohorts received smaller doses of MDA7 (5 mg/kg or 1.5 mg/kg) i.p. daily for 14 days to determine the dose-response characteristics for MDA7. In other groups, AM630 (a CB2 antagonist) 5 mg/kg i.p. was administered daily for 14 days either alone (Aβ1-40+AM630 group) or 15 min prior to MDA7 (15 mg/kg i.p.) administration (Aβ1-40+MDA7+AM630 group) to rats injected with β1-40 fibrils. MDA7 group and control group received bilateral intracerebral microinjection of artificial cerebrospinal fluid (130 mM NaCl, 2.6 mM KCl. 4.3 mM MgCl2 and 1.8 mM CaCl2) once and 15 mg/kg MDA7 or saline i.p. daily for 14 days, respectively. Intraperitoneal administration of AM630, MDA7 or saline started on the same day after intracerebral microinjection of Aβ1-40. All drugs were prepared coded. Decoding was performed at the end of all experiments.
(§4) Microinjection of amyloid fibrils into the hippocampal CA1 area. Rats were anesthetized with sodium pentobarbital (45 mg/kg i.p.) and restrained in a stereotaxic apparatus. Aβ1-40 fibrils were formed as described previously. […]
as §2

Aβ1-40 = experiment: Clearance of Aβ1-40 injected in the hippocampal CA1 area (immunofluorescence); details: Aβ1-40-injected rats, 15 mg/kg per day for 14 days; hippocampal CA1
Description: as §3, §4
Immunostaining. […] Three to six sections from each rat were randomly selected and were analyzed using Leica DMLB fluorescence microscope (Leica Microsystems Wetzlar GmbH, Germany) by one investigator, who was blinded to the origin of tissue being examined. Images were quantified using MCID Core software version 7.0 (InterFocus Imaging Ltd, Cambridge, England).

CD11b = CD11b immunoreactivity in hippocampal CA1 area (immunostaining, immunoblotting)
Description: as §3, §4, §2

[1] = Aβ-injected rats, 14 days i.p. (15 mg/kg), vs saline, hippocampal CA1
[2] = rats without Aβ1-40, compared to control rats

CC1(Cc2ccccc2)COc2cc(C(=O)N3CCCCC3)ccc21 (stereo not shown) [MDA7, 3-benzyl-3-methyl-2,3-dihydrobenzofuran-6-carboxylic acid-piperidine amide]
IL-1β protein expression (immunoblot) (IL-1β): significantly attenuated
CB2 receptor expression (immunoblotting) (CB2 receptor; 15 mg/kg i.p. daily for 14 days): significantly reversed
CB2 expression (immunofluorescence) (CB2 receptor; 15 mg/kg i.p. for 14 days, vs saline): reduced CB2 expression
GFAP immunofluorescence intensity (GFAP; Aβ1-40-injected rats, 15 mg/kg i.p. for 14 days, vs saline, hippocampal CA1): significantly less
GFAP protein expression (immunoblot) (GFAP; [1]): significantly attenuated
GFAP expression, treatment alone (GFAP; [2]): no significant effect
clearance of injected Aβ1-40 (Aβ1-40): induced removal of Aβ1-40
CD11b immunofluorescence intensity (CD11b; Aβ1-40-injected rats, i.p. for 14 days, vs saline, hippocampal CA1): significantly less
CD11b protein expression (immunoblot) (CD11b; [1]): significantly attenuated
CD11B expression, treatment alone (CD11b; [2]): no significant effect
